Read-outs that look alike come from different tables or passages of the source.
What was measured:
[1] = biological target: GDP-bound KRAS wild-type protein (Homo sapiens, UniProt P01116); assay: Binding to KRAS by surface plasmon resonance (SPR), Single Cycle Kinetics; conditions: GDP-bound KRAS wild-type protein, read-out: KRAS KD
[2] = biological target: GDP-bound NRAS wild-type protein (Homo sapiens, UniProt P01111); assay: Binding to NRAS by surface plasmon resonance (SPR), Single Cycle Kinetics; conditions: for NRAS/KRAS (ratio of KD value for NRAS to KD value for KRAS): SPR, GDP-bound NRAS wild-type protein vs GDP-bound KRAS wild-type protein; for NRAS/KRAS (ratio of KD value with respect to GDP-bound NRAS wild-type protein to KD value with respect to KRAS): SPR KD ratio NRAS/KRAS, class symbols
[3] = biological target: GDP-bound HRAS wild-type protein (Homo sapiens, UniProt P01112); assay: Binding to HRAS by surface plasmon resonance (SPR), Single Cycle Kinetics; conditions: for HRAS/KRAS (ratio of KD value for HRAS to KD value for KRAS): SPR, GDP-bound HRAS wild-type protein vs GDP-bound KRAS wild-type protein; for HRAS/KRAS (ratio of KD value with respect to GDP-bound HRAS wild-type protein to KD value with respect to KRAS): SPR KD ratio HRAS/KRAS, class symbols
[4] = test system: human lung cancer strain NCI-H441;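 note: cell proliferation inhibition after four days measured by CellTiter-Glo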
[5] = SPR, Single Cycle Kinetics, 1:1 binding model
[6] = SPR Single Cycle Kinetics, 1:1 binding model

GDP-bound NRAS wild-type protein, sequence (P01111 whole entry): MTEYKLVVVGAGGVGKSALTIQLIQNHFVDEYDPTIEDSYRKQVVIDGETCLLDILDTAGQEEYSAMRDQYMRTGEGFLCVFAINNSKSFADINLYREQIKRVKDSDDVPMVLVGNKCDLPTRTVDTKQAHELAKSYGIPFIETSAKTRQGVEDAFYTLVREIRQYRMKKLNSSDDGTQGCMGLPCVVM
GDP-bound KRAS wild-type protein, sequence (P01116 whole entry): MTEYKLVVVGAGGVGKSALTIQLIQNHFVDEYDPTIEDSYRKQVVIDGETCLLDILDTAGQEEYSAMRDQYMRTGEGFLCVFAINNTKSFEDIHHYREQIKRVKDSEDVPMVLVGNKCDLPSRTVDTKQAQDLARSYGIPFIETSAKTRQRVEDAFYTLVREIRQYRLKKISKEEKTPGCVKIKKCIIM
GDP-bound HRAS wild-type protein, sequence (P01112 whole entry): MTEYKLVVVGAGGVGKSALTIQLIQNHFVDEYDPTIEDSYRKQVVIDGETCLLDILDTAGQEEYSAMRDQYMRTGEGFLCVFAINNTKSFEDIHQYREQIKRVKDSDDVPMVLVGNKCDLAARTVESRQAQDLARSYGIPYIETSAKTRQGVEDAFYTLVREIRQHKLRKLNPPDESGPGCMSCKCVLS

Row | Structure (SMILES) | Kd [1, 5] | IC50 [4] | Kd [1, 6] | Kd ([1]; SPR, Single Cycle Kinetics) | NRAS/KRAS (ratio of KD value for NRAS to KD value for KRAS) ([2]; KD ratio class) | HRAS/KRAS (ratio of KD value for HRAS to KD value for KRAS) ([3]; KD ratio class) | NRAS/KRAS (ratio of KD value with respect to GDP-bound NRAS wild-type protein to KD value with respect to KRAS) [2] | HRAS/KRAS (ratio of KD value with respect to GDP-bound HRAS wild-type protein to KD value with respect to KRAS) [3] | NRAS/KRAS (ratio of KD value for NRAS to KD value for KRAS) [2] | HRAS/KRAS (ratio of KD value for HRAS to KD value for KRAS) [3]
1 | CCC[C@H]1C(=O)N[C@@H]([C@@H](C)CC)C(=O)N(C2CC2)CC(=O)N(C)[C@H]2C/C=C\CCN(C2=O)[C@@H](CC2CCC(F)(F)CC2)C(=O)N(C)CC(=O)N[C@@H](CCc2ccc(Cl)c(Cl)c2)C(=O)N2C[C@H](OCC)C[C@H]2C(=O)NC2(CC(C)(C)C2)C(=O)N(C)[C@@H](C2CCCC2)C(=O)N(C)[C@H](C(=O)N(C)C)CC(=O)N1C [PP2567] |  | 102 nM | 1.9 nM |  |  |  | A (a compound having 10 or more and less than 20 is denoted as A) | A (a compound having 10 or more and less than 20 is denoted as A) |  | 
2 | CCO[C@@H]1C[C@H]2C(=O)NC3(CCC3)C(=O)N(C)[C@@H](C3CCCC3)C(=O)N(C)[C@H](C(=O)N(C)C)CC(=O)N(C)[C@@H](CC)C(=O)N[C@@H]([C@@H](C)CC)C(=O)N(C)CC(=O)N(C)[C@H]3C/C=C\CCN(C3=O)[C@@H](CC3CCCCC3)C(=O)N(C)CC(=O)N[C@@H](CCc3cc(F)c(C(F)(F)F)c(F)c3)C(=O)N2C1 [PP1466, (2S,8S,12R,14S,20S,23S,27S,30S,36S,38Z)-2-(cyclohexylmethyl)-20-cyclopentyl-8-[2-[3,5-difluoro-4-(trifluoromethyl)phenyl]ethyl]-12-ethoxy-27-ethyl-N,N,4,19,22,26,32,35-octamethyl-30-[(1S)-1-methylpropyl]-3,6,9,15,18,21,25,28,31,34,42-undecaoxo-spiro[1,4,7,10,16,19,22,26,29,32,35-undecazatricyclo[34.5.1.0^10,14]dotetracont-38-ene-17,1′-cyclobutane]-23-carboxamide] | 0.14 nM | 33.2 nM |  |  | A (a compound having 10 or more and less than 20 is denoted as A) | A (a compound having 10 or more and less than 20 is denoted as A) |  |  |  | 
3 | CCO[C@@H]1C[C@H]2C(=O)NC3(CCC3)C(=O)N(C)[C@@H](C(CC)CC)C(=O)N(C)[C@H](C(=O)N(C)C)CC(=O)N(C)[C@@H](CC(C)C)C(=O)N[C@@H]([C@@H](C)CC)C(=O)N(C)CC(=O)N(C)[C@H]3C/C=C\CCN(C3=O)[C@@H](Cc3ccc(C(F)(F)F)cc3)C(=O)N(C)CC(=O)N[C@@H](CCc3ccc4sccc4c3)C(=O)N2C1 [PP1225] | 1.1 nM | 92.5 nM |  |  | AA (a compound having 20 or more is denoted as AA) | A (a compound having 10 or more and less than 20 is denoted as A) |  |  |  | 
4 | CCOC[C@H]1C(=O)N[C@@H]([C@@H](C)CC)C(=O)N(C)CC(=O)N(C)[C@H]2C/C=C\CCN(C2=O)[C@@H](CC2CCCCC2)C(=O)N(C)CC(=O)N[C@@H](CCc2cc(F)c(C(F)(F)F)c(F)c2)C(=O)N2C[C@H](OCC)C[C@H]2C(=O)NC2(CC(C)(C)C2)C(=O)N(C)[C@@H](C(CC)CC)C(=O)N(C)[C@H](C(=O)N(C)C)CC(=O)N1C [PP2479] |  | 26 nM |  | 1.4 nM |  |  |  |  | AA (a compound having 20 or more is denoted as AA) | A (a compound having 10 or more and less than 20 is denoted as A)
5 | CCOC[C@H]1C(=O)N[C@@H]([C@@H](C)CC)C(=O)N(C)CC(=O)N(C)[C@H]2C/C=C\CCN(C2=O)[C@@H](Cc2ccc(C(F)(F)F)cc2)C(=O)N(C)CC(=O)N[C@@H](CCc2ccc(Cl)c(Cl)c2)C(=O)N2C[C@H](OCC)C[C@H]2C(=O)NC2(CC(C)(C)C2)C(=O)N(C)[C@@H](CC2CCC2)C(=O)N(C)[C@H](C(=O)N(C)C)CC(=O)N1C [PP2767] |  | 62.6 nM | 0.49 nM |  |  |  | A (a compound having 10 or more and less than 20 is denoted as A) | A (a compound having 10 or more and less than 20 is denoted as A) |  | 
6 | CC[C@H](C)[C@@H]1NC(=O)[C@H](CC)N(C)C(=O)C[C@@H](C(=O)N2CCOCC2)N(C)C(=O)[C@H](C2CCCC2)N(C)C(=O)C2(CCC2)NC(=O)[C@@H]2CCCN2C(=O)[C@H](CCc2ccc(C(F)(F)F)c(Cl)c2)NC(=O)CN(C)C(=O)[C@H](Cc2ccc(C(F)(F)F)cc2)N2C[C@H](C)CC[C@@H](C2=O)N(C)C(=O)CN(C)C1=O [PP1338] | 0.14 nM | 35 nM |  |  | B (a compound having 3 or more and less than 10 is denoted as B) | B (a compound having 3 or more and less than 10 is denoted as B) |  |  |  | 
7 | CCO[C@@H]1C[C@H]2C(=O)NC3(CCC3)C(=O)N(C)[C@@H](C3CCCC3)C(=O)N(C)[C@H](C(=O)N(C)C)CC(=O)N(C)[C@@H](Cc3cccs3)C(=O)N[C@@H]([C@@H](C)CC)C(=O)N(C)CC(=O)N(C)[C@H]3CCCCCN(C3=O)[C@@H](Cc3ccc(F)cc3)C(=O)N(C)CC(=O)N[C@@H](CCc3cc(F)c(C(F)(F)F)c(F)c3)C(=O)N2C1 [PP1197] |  | 14.8 nM |  | 0.096 nM |  |  |  |  | B (a compound having 3 or more and less than 10 is denoted as B) | B (a compound having 3 or more and less than 10 is denoted as B)
8 | CCC[C@H]1C(=O)N[C@@H](CC(C)C)C(=O)N2C[C@@H](OC)C[C@H]2C(=O)N(C)[C@H]2C/C=C\CCN(C2=O)[C@@H](Cc2ccc(C)cc2)C(=O)N(C)CC(=O)N[C@@H](CCc2cc(F)c(C(F)(F)F)c(F)c2)C(=O)N2C[C@H](OCC)C[C@H]2C(=O)NC2(CC(C)(C)C2)C(=O)N(C)[C@@H](C2CCCC2)C(=O)N(C)[C@H](C(=O)N(C)C)CC(=O)N1C [PP2553] |  | 121 nM | 3.4 nM |  |  |  | A (a compound having 10 or more and less than 20 is denoted as A) | B (a compound having 3 or more and less than 10 is denoted as B) |  | 

Now those with a lower IC50 [4], led by results:

Row | Kd [1, 5] | IC50 [4] | Kd [1, 6] | Kd ([1]; SPR, Single Cycle Kinetics) | Structure (SMILES) | NRAS/KRAS (ratio of KD value for NRAS to KD value for KRAS) ([2]; KD ratio class) | HRAS/KRAS (ratio of KD value for HRAS to KD value for KRAS) ([3]; KD ratio class) | NRAS/KRAS (ratio of KD value with respect to GDP-bound NRAS wild-type protein to KD value with respect to KRAS) [2] | HRAS/KRAS (ratio of KD value with respect to GDP-bound HRAS wild-type protein to KD value with respect to KRAS) [3] | NRAS/KRAS (ratio of KD value for NRAS to KD value for KRAS) [2] | HRAS/KRAS (ratio of KD value for HRAS to KD value for KRAS) [3]
9 | 0.12 nM | 9.5 nM |  |  | C=CC[C@H]1C(=O)N[C@@H]([C@@H](C)CC)C(=O)N(C)CC(=O)N(C)[C@H]2C/C=C\CCN(C2=O)[C@@H](CC2CCCCC2)C(=O)N(C)CC(=O)N[C@@H](CCc2cc(F)c(C(F)(F)F)c(F)c2)C(=O)N2C[C@H](OCC)C[C@H]2C(=O)NC2(CCC2)C(=O)N(C)[C@@H](C2CCCC2)C(=O)N(C)[C@H](C(=O)N(C)C)CC(=O)N1C [PP1468, (2S,8S,12R,14S,20S,23S,27S,30S,36S,38Z)-27-allyl-2-(cyclohexylmethyl)-20-cyclopentyl-8-[2-[3,5-difluoro-4-(trifluoromethyl)phenyl]ethyl]-12-ethoxy-N,N,4,19,22,26,32,35-octamethyl-30-[(1S)-1-methylpropyl]-3,6,9,15,18,21,25,28,31,34,42-undecaoxo-spiro[1,4,7,10,16,19,22,26,29,32,35-undecazatricyclo[34.5.1.0^10,14]dotetracont-38-ene-17,1′-cyclobutane]-23-carboxamide] | A (a compound having 10 or more and less than 20 is denoted as A) | A (a compound having 10 or more and less than 20 is denoted as A) |  |  |  | 
10 |  | 5.2 nM |  | 0.12 nM | CCOC[C@H]1C(=O)N[C@@H]([C@@H](C)CC)C(=O)N(C)CC(=O)N(C)[C@H]2C/C=C\CCN(C2=O)[C@@H](Cc2ccc(C(F)(F)F)cc2)C(=O)N(C)CC(=O)N[C@@H](CCc2ccc(C(F)(F)F)c(OC)c2)C(=O)N2C[C@H](OCC)C[C@H]2C(=O)N(C)C2(CCC2)C(=O)N(C)[C@@H](C(CC)CC)C(=O)N(C)[C@H](C(=O)N(C)C)CC(=O)N1C [PP2383] |  |  |  |  | A (a compound having 10 or more and less than 20 is denoted as A) | A (a compound having 10 or more and less than 20 is denoted as A)
11 |  | 8.6 nM |  | 0.31 nM | CCOC[C@H]1C(=O)N[C@@H]([C@@H](C)CC)C(=O)N(C)CC(=O)N(C)[C@H]2C/C=C\CCN(C2=O)[C@@H](Cc2ccc(C)cc2)C(=O)N(C)CC(=O)N[C@@H](CCc2ccc(C(F)(F)F)c(OC)c2)C(=O)N2C[C@@H](C)C[C@H]2C(=O)NC2(CC(C)(C)C2)C(=O)N(C)[C@@H](C2CCCC2)C(=O)N(C)[C@H](C(=O)N(CC)CC)CC(=O)N1C [PP2405] |  |  |  |  | A (a compound having 10 or more and less than 20 is denoted as A) | A (a compound having 10 or more and less than 20 is denoted as A)
12 |  | 7.5 nM | 0.061 nM |  | CCOC[C@H]1C(=O)N[C@@H]([C@@H](C)CC)C(=O)N(C)CC(=O)N(C)[C@H]2C/C=C\CCN(C2=O)[C@@H](Cc2ccc(C(F)(F)F)cc2)C(=O)N(C)CC(=O)N[C@@H](CCc2ccc(C(F)(F)F)c(OC)c2)C(=O)N2C[C@H](OCC)C[C@H]2C(=O)NC2(CC(C)(C)C2)C(=O)N(C)[C@@H](CC(C)(C)C)C(=O)N(C)[C@H](C(=O)N(C)C)CC(=O)N1C [PP2736] |  |  | A (a compound having 10 or more and less than 20 is denoted as A) | A (a compound having 10 or more and less than 20 is denoted as A) |  | 

From US20240158446A1, “CYCLIC COMPOUND HAVING SELECTIVE INHIBITORY ACTION ON KRAS OVER HRAS AND NRAS” (CHUGAI SEIYAKU KABUSHIKI KAISHA, priority 2021, published 2024)
